Experiments:
[1] = test system: intestinal motility; assay: Charcoal meal model of intestinal motility; assay type: in vivo, rat; conditions: 30 minutes before charcoal meal, distance traveled in 20 minutes
Description: Rats were fasted for 18 hours before the experiment, with free access to water. Animals were weighed, and vehicle or compounds were administered by oral gavage. […] After 30 minutes, each animal received standard charcoal meal (10% suspension of activated charcoal in 5% gum arabic) by oral gavage (5 ml/kg). Animals were given access to food within 1 minute and sacrificed 20 minutes after the charcoal meal. The intestines were carefully removed. Motility was calculated as the measured distance traveled by the charcoal as a percentage of total length from pyloric sphincter to ileocecal junction.

[2] = biological target: T1, NEP (Homo sapiens, UniProt P08473); assay: Purified peptidase assay, NEP; assay type: biochemical
T1 construct: purchased R&D Systems (Minneapolis, MN)
Description: Purified recombinant human enzymes were purchased from R&D Systems (Minneapolis, MN). […] Each substrate was diluted to 100 μM in the assay buffer recommended for each enzyme by the supplier. […] To these, 5 μl of diluted enzyme was added, followed by 10 μl of the quenched peptide substrate. The plates were incubated at 37°C until at least 10% substrate turnover or 5 μM product had formed. Fluorescence was measured using a Tecan Safire II (Excitation 320 nm/Emission 420 nm). Each plate included a standard curve of reaction product and positive (no enzyme) and negative (dimethyl sulfoxide vehicle) controls. Dose-response data were plotted and inhibition values (IC50) determined by linear regression analysis using GraphPad Prism (GraphPad Software, La Jolla, CA).

[3] = test system: castor oil–induced diarrhea; assay: Castor oil–induced diarrhea model; assay type: in vivo, rat
Description: Experiments were performed with 6-to-7-week-old male Wistar rats obtained from Charles River Laboratories (Wilmington, MA). All animals were housed in Saint Louis University facilities under controlled conditions of temperature, humidity, and a 12-hour light/dark cycle. They were maintained on standard rodent chow with free access to water. Animal care and all procedures were performed in accordance with the National Institutes of Health Guide for the Care and Use of Laboratory Animals and approved by the university’s institutional animal care and use committee.
Animals were weighed and individually housed in metabolic cages containing white paper underneath to collect feces. Test compounds or vehicles were administered by oral gavage (5 ml/kg), and then at indicated times, 10 ml/kg body weight of 100% castor oil was administered by oral gavage to induce diarrhea. Animals had access to food within 5 minutes. Stool weight was recorded starting 15 minutes after castor oil administration and repeated every 15 minutes up to 4 hours. […] After 4 hours, animals were euthanized with CO2, and blood and tissues were collected for analyses.

[4] = biological target: T2, NEP (Rattus norvegicus, UniProt P07861); assay: NEP enzyme activity in tissues after oral treatment; assay type: in vivo; conditions: normal rats; for Relative NEP inhibition, duodenum / Relative NEP inhibition, jejunum / Relative NEP inhibition, kidney / Relative NEP inhibition, lung: vs vehicle
T2 construct: NEP enzyme activity was measured in tissue homogenates; from tissue; host or cells: Wistar rat kidney, lung, duodenum, jejunum homogenates
T2 sequence (P07861 1-750): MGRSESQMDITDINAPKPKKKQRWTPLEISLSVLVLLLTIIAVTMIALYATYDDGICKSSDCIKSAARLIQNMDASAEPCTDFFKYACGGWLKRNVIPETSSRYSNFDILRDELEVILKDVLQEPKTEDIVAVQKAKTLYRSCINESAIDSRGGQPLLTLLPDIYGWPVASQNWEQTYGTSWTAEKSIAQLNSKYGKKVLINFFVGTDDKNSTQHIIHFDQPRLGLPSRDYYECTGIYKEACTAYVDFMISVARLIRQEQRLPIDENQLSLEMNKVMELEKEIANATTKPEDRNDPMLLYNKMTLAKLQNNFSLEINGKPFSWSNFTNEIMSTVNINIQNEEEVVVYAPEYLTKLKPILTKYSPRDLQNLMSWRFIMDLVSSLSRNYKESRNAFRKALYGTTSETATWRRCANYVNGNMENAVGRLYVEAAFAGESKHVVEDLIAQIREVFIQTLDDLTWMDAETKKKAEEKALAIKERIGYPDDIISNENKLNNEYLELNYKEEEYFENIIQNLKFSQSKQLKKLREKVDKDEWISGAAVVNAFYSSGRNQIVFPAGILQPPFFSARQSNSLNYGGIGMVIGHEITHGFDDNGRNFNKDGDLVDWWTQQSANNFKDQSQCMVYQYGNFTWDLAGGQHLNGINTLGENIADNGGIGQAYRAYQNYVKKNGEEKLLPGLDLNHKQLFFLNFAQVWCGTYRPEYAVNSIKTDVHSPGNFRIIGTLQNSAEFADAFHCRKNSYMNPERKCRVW
Description: Four or five 2-mm Zirconia beads (Biospec, Bartlesville, OK) were added to fresh weighed tissue specimens (50–250 mg). Assay buffer consisting of 50 mM Tris-HCl (pH 7.4), 200 mM NaCl, and 0.05% TritonX-100 was added (4 μl/mg), and the sample was homogenized for 1 minute using a bead beater (Biospec). Stored frozen homogenates were thawed at room temperature and centrifuged 10 minutes at 18,000g, and the protein concentration was determined for each supernatant. […] NEP substrate 2Abz-dArg-Gly-Leu-C2-Dnp (American Peptide, Sunnyvale, CA) was prepared at 1 mM in 20% acetonitrile/water and diluted to 100 μM in assay buffer, and 10 μl was dispensed to homogenate-containing wells. […] Kinetic data were plotted to determine the rate of product formation by linear regression with interpolation against a standard curve, and the rate was normalized to protein concentration.

[5] = 1 h after single oral dose (Race 100, Candox 150, Sac 100, UK 100 mg/kg)
[6] = 5 h after single oral dose (Race 100, Candox 150, Sac 100, UK 100 mg/kg)

T1 sequence (P08473 whole entry): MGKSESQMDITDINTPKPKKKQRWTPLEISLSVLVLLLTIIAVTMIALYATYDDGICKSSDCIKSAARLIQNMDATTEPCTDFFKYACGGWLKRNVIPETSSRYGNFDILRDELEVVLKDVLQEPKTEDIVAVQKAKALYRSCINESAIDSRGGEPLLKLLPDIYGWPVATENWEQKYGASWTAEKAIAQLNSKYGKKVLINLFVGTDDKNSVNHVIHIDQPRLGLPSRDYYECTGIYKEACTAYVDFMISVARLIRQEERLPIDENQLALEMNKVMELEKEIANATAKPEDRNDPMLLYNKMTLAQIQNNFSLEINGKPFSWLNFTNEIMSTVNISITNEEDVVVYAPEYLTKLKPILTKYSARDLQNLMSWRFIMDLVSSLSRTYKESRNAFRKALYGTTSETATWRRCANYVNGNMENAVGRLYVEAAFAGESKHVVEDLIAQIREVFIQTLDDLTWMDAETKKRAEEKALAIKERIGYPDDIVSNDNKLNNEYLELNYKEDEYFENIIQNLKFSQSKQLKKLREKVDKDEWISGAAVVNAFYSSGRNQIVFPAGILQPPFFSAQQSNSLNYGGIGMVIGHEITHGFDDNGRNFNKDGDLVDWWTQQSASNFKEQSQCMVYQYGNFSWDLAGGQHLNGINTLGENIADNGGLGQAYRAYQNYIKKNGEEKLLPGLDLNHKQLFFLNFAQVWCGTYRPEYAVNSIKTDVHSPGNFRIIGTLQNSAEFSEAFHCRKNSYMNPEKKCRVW

CN(C)C(=O)C(CCN1CCC(O)(c2ccc(Cl)cc2)CC1)(c1ccccc1)c1ccccc1 [loperamide]
Effect on intestinal transit (charcoal meal test) ([1]; oral, dose not given (Fig. 5)): greatly slowed transit

CCOC(=O)[C@H](C)C[C@@H](Cc1ccc(-c2ccccc2)cc1)NC(=O)CCC(=O)O [Sacubitril, 4-(((2S,4R)-1-([1,1′-biphenyl]-4-yl)-5-ethoxy-4-methyl-5-oxopentan-2-yl)amino)-4-oxobutanoic acid]
Effect on intestinal transit (charcoal meal test) ([1]; 30 mg/kg oral): no effect | Effect on intestinal transit (charcoal meal test) ([1]; 100 mg/kg oral): significant but very modest effect

COCCOC[C@H](CC1(C(=O)N[C@H]2CC[C@@H](C(=O)O)CC2)CCCC1)C(=O)O [Candoxatrilat, candoxatrilat]
IC50 ([2]; recombinant purified human enzyme, for prodrugs the active form was tested): < 100 nM | NEP selectivity over the other peptidases ([2]; versus panel of ACE, ECE-1, ECE-2, IDE, APN, PSA): > 60 fold

CC(=O)SCC(Cc1ccccc1)C(=O)NCC(=O)OCc1ccccc1 (centres unmarked) [Racecadotril]
Stool output, 150 or 240 minutes predosing ([3]; 100 mg/kg oral 150 or 240 minutes before castor oil (Fig. 4B, 4C)): Neither drug was effective | Incidence of diarrhea ([3]; dose-response study (Fig. 2A), 30 minutes before castor oil, sacubitril at highest tested dose, racecadotril 100 mg/kg): 100% | Cumulative stool output over 4 hours ([3]; single oral dose 30 minutes before castor oil, fasted rats, vs vehicle (Fig. 1)): significantly reduced | Stool output, dose-response studies ([3]; single oral treatment with varying doses (racecadotril 100 mg/kg) 30 minutes before castor oil (Fig. 2A, 2C)): significantly reduced stool output | Relative NEP inhibition, duodenum [4, 5]: 98% | Relative NEP inhibition, jejunum [4, 5]: 90% | Relative NEP inhibition, kidney [4, 5]: 56% | Relative NEP inhibition, lung [4, 5]: 75% | NEP enzyme activity in duodenum and jejunum ([4]; 1 hour after single oral 100 mg/kg dose (Fig. 3A, B)): barely detectable levels | Relative NEP inhibition, duodenum [4, 6]: 85% | Relative NEP inhibition, jejunum [4, 6]: 32% | Relative NEP inhibition, kidney [4, 6]: 39% | Relative NEP inhibition, lung [4, 6]: 59% | NEP inhibition in lung and kidney tissue after 24 hours ([4]; 24 hours after single oral 100 mg/kg dose (Fig. 3C, D)): returned to normal | Effect on intestinal transit (charcoal meal test) ([1]; oral, dose not given (Fig. 5)): no effect
